Experimental findings from ChEMBL document CHEMBL4418484, “Inhibitors of nkx2.5 for vascular remodelling” (2015) are described below.

Active and inactive are the calls of the source. The rule behind the calls is not given here.

The species named for data set [1] is Homo sapiens. The experiment in a line: Inhibition of casein kinase-2 in human pulmonary smooth muscle cells assessed as reduction in Nkx2-5 nuclear translocation.
Data set [2] is described as follows: Effect on Nkx2-5 cytosolic expression in human pulmonary smooth muscle cells. It counts as ADME. The settings on record: cytosol.
The subject of data set [3] is Mus musculus. The experiment in a line: Inhibition of right ventricular systolic pressure increase in […] mouse hypoxia/Sugen pre-clinical model of pulmonary hypertension at 80 mg/kg dosed daily for 20 days starting immediately post experimental initiation. It counts as functional, organism-based.
The species named for data set [4] is Homo sapiens. The experiment in a line: Inhibition of casein kinase-2/Nkx2-5 in human pulmonary smooth muscle cells assessed as down-regulation of CCN2 protein expression at 1 nM by Western blot analysis. For orientation: In western blotting, separated proteins are transferred to a membrane and probed.
The test system of data set [5] is Mus musculus. The experiment in a line: Inhibition of right ventricular systolic pressure increase in […] mouse hypoxia/Sugen pre-clinical model of pulmonary hypertension at 80 mg/kg dosed daily for 20 days starting 8 days post experimental initiation. It counts as functional, organism-based.
The species named for data set [6] is Homo sapiens. The experiment in a line: Inhibition of casein kinase-2/Nkx2-5 in human pulmonary smooth muscle cells assessed as up-regulation of ACTA2 protein expression at 1 nM by Western blot analysis.
The species entered for data set [7] is Homo sapiens. The experiment in a line: Inhibition of casein kinase-2/Nkx2-5 in human pulmonary smooth muscle cells assessed as down-regulation of CCN2 protein expression at 10 nM by Western blot analysis.
For data set [8], the species on record is Homo sapiens. In words: Inhibition of casein kinase-2/Nkx2-5 in human pulmonary smooth muscle cells assessed as up-regulation of MYH11 protein expression at 10 nM by Western blot analysis.
The species entered for data set [9] is Homo sapiens. The experiment in a line: Inhibition of casein kinase-2/Nkx2-5 in human pulmonary smooth muscle cells assessed as down-regulation of COL1 protein expression at 10 nM by Western blot analysis.
Data set [10] has as its system Mus musculus. In words: Effect on systemic pressure in […] mouse hypoxia/Sugen pre-clinical model of pulmonary hypertension at 80 mg/kg dosed daily for 20 days starting immediately post experimental initiation. Particulars: in vivo, 480 h. It counts as ADME, organism-based.
The subject of data set [11] is Mus musculus. The experiment in a line: Effect on systemic pressure in […] mouse hypoxia/Sugen pre-clinical model of pulmonary hypertension at 80 mg/kg dosed daily for 20 days starting 8 days post experimental initiation. It counts as functional, organism-based.
For data set [12], the species on record is Homo sapiens. The experiment in a line: Inhibition of cell proliferation of human pulmonary smooth muscle cells incubated up to 120 hrs. It counts as functional.
For data set [13], the species on record is Homo sapiens. In words: Inhibition of casein kinase-2/Nkx2-5 in human pulmonary smooth muscle cells assessed as down-regulation of COL1 protein expression at 1 nM by Western blot analysis.
The species entered for data set [14] is Homo sapiens. The experiment in a line: Inhibition of casein kinase-2/Nkx2-5 in human pulmonary smooth muscle cells assessed as up-regulation of ACTA2 protein expression at 10 nM by Western blot analysis.
For data set [15], the species on record is Homo sapiens. In words: Inhibition of de-differentiation of human pulmonary smooth muscle cells assessed as reduction in contractile to synthetic forms change. It counts as functional.
Data set [16] is filed under the species Homo sapiens. The experiment in a line: Inhibition of casein kinase-2/Nkx2-5 in human pulmonary smooth muscle cells assessed as up-regulation of MYH11 protein expression at 1 nM by Western blot analysis.
Data set [17] is filed under the species Homo sapiens. In words: Inhibition of cell migration of human pulmonary smooth muscle cells by standard scratch assay. It counts as functional.

For the molecule `COc1cc(Nc2ncc3ccn(-c4cccc(CCC#N)c4)c3n2)cc(OC)c1OC`, the inhibition result in [1] was “Active”. Besides, in data set [2], the Activity result is “Non-Toxic”.

Take `O=C(O)c1ccc2c(c1)nc(Nc1cccc(Cl)c1)c1ccncc12` [SILMITASERTIB]: the inhibition result in data set [3], in [4], in data set [5], in [6], in [7] and in data set [8] was “Active” in each case. For the same molecule, the inhibition result in [9], in data set [13], in [14] and in [16] was “Active” throughout. The Activity result in data set [10] was “Non-Toxic”. Moreover, the outcome in [11] was inactive. Further, the inhibition result in data set [12], in [15] and in data set [17] was “Dose-dependent effect” each time.
